Measurements taken from patent US7153930B1, “Peptide transport” (priority 1999, dated 2006).
Non-standard residues stand in square brackets, D forms with d. Residues, ends and D or L forms follow the SMILES beside them. *: point of attachment. Cholyl = C[C@H](CCC(=O)*)[C@H]1CC[C@H]2[C@@H]3[C@H](O)C[C@@H]4C[C@H](O)CC[C@]4(C)[C@H]3C[C@H](O)[C@]12C; pGlu = O=C1CC[C@@H](C(=O)O)N1

Legend:
gastric acid secretion [1] = conditions: rat, in vivo
Protocol: (§1) Experiments were carried out on male Wistar rats of 250–350 g, which had been starved overnight, and which were anaesthetized with an I.P. injection of Sagatal (pentobarbitone sodium, obtainable from Rhône Mérieux, Harlow Essex, UK) of dosage appropriate to the body weight. The criterion for anaesthesia was abolition of the hind limb flexor withdrawal reflex. The following surgical procedures were then carried out: tracheostomy to allow artificial ventilation if required, cannulation of the carotid artery to monitor blood pressure, cannulation of the external jugular vein to allow for the slow bolus infusion of drugs, intubation of the stomach at the pyloro-duodenal junction after ligation of the oesophagus to measure gastric acid secretion, cannulation of the terminal ileum and/or of the proximal jejunum distal to the ligament of Treitz for infusion of peptide hormones.
(§2) Gastric acid secretion was measured by the following method. 1.0 ml of glycine/mannitol buffer (1 part glycine (0.3M) and 4 parts D-mannitol (0.3M) adjusted to pH 6.5) was instilled into the stomach and left for 15 min when withdrawal was made. The HCl secreted was determined by back titration with 10 mM NaOH to pH 6.5.
(§3) The data are expressed as the mean±S.D. μmol HCl secreted by the stomach over the stated time period in response to the experimental procedure.

gastric acid secretion [2] = assay: Gastric acid secretion in anaesthetized rats after I.V., intra-ileal or jejunal administration of gastrin peptides (back titration of HCl); conditions: for increase in gastric acid secretion with respect to baseline: P=0.001; for effect on gastric acid secretion: unconjugated gastrin without prior injection of the respective conjugate; for absorption across the ileal wall into the circulation: cholate conjugated form introduced into the ileum; for stimulation of the peak gastric acid secretion: 5 rats
Protocol: as §1, §2, §3

**Q.** What does the source list for `CSCC[C@H](NC(=O)[C@@H](N)Cc1c[nH]c2ccccc12)C(=O)N[C@@H](CC(=O)O)C(=O)N[C@@H](Cc1ccccc1)C(N)=O` [G4, Trp-Met-Asp-Phe amide]?
**A.** absorption from the upper jejunum (gastric acid secretion [1]): lack of absorption; absorption of unconjugated gastrin (gastric acid secretion [1]): absorption of the unconjugated gastrin occurred; increase in gastric acid secretion with respect to baseline (gastric acid secretion [2]; first intravenous injection (start of experiment)): 0.42±0.10 μmol 15 min^1; fall in the mean gastric acid level (gastric acid secretion [2]; ileal infusion, 2500 μg kg^−1 in 1.0 ml isotonic saline, 6 experiments, P=0.043): 0.23 ± 0.21 µmol/h; increase in gastric acid secretion with respect to baseline (gastric acid secretion [2]; second intravenous injection (end of experiment)): 0.50±0.14 μmol 15 min^1; effect on gastric acid secretion (gastric acid secretion [2]): without effect on gastric acid secretion

**Q.** Which “absorption across the ileal wall into the circulation” value (gastric acid secretion [2]) does the source give for `CSCC[C@H](NC(=O)[C@H](Cc1c[nH]c2ccccc12)NC(=O)CC[C@@H](C)[C@H]1CC[C@H]2[C@@H]3[C@H](O)C[C@@H]4C[C@H](O)CC[C@]4(C)[C@H]3C[C@H](O)[C@]12C)C(=O)N[C@@H](CC(=O)O)C(=O)N[C@@H](Cc1ccccc1)C(N)=O` [G4-CA, cholate-Trp-Met-Asp-Phe amide] here?
**A.** The value was “absorption of the conjugated gastrin across the ileal wall into the circulation occurred”.

**Q.** Which “absorption across the ileal wall into the circulation” value (gastric acid secretion [2]) does the source give for `CSCC[C@H](NC(=O)[C@H](Cc1c[nH]c2ccccc12)NC(=O)CNC(=O)[C@H](Cc1ccc(O)cc1)NC(=O)[C@H](C)NC(=O)[C@H](CCC(=O)O)NC(=O)[C@H](CCC(=O)O)NC(=O)[C@H](CCC(=O)O)NC(=O)CC[C@@H](C)[C@H]1CC[C@H]2[C@@H]3[C@H](O)C[C@@H]4C[C@H](O)CC[C@]4(C)[C@H]3C[C@H](O)[C@]12C)C(=O)N[C@@H](CC(=O)O)C(=O)N[C@@H](Cc1ccccc1)C(N)=O` [G10-CA, cholate-Glu-Glu-Glu-Ala-Tyr-Gly-Trp-Met-Asp-Phe-amide] (Cholyl-EEEAYGWMDF-NH2) here?
**A.** Its value is “absorption of the conjugated gastrin across the ileal wall into the circulation occurred”.

**Q.** With `CC[C@H](C)[C@H](NC(=O)[C@H](Cc1ccccc1)NC(=O)[C@H](Cc1c[nH]cn1)NC(=O)[C@H](CCC(N)=O)NC(=O)[C@@H]1CCCN1C(=O)CNC(=O)[C@H](CCC(N)=O)NC(=O)[C@@H]1CCCN1C(=O)CNC(=O)[C@H](CC(C)C)NC(=O)[C@H](CCC(=O)O)NC(=O)CC[C@@H](C)[C@H]1CC[C@H]2[C@@H]3[C@H](O)C[C@@H]4C[C@H](O)CC[C@]4(C)[C@H]3C[C@H](O)[C@]12C)C(=O)N[C@@H](C)C(=O)N[C@@H](CC(=O)O)C(=O)N[C@@H](CC(C)C)C(=O)N[C@@H](CO)C(=O)N[C@@H](CCCCN)C(=O)N[C@@H](CCCCN)C(=O)N[C@@H](CCC(N)=O)C(=O)N[C@@H](CCCNC(=N)N)C(=O)N1CCC[C@H]1C(=O)N1CCC[C@H]1C(=O)N[C@@H](CCSC)C(=O)N[C@@H](CCC(=O)O)C(=O)N[C@@H](CCC(=O)O)C(=O)N[C@@H](CCC(=O)O)C(=O)N[C@@H](CCC(=O)O)C(=O)N[C@@H](CCC(=O)O)C(=O)N[C@@H](C)C(=O)N[C@@H](Cc1ccc(O)cc1)C(=O)NCC(=O)N[C@@H](Cc1c[nH]c2ccccc12)C(=O)N[C@@H](CCSC)C(=O)N[C@@H](CC(=O)O)C(=O)N[C@@H](Cc1ccccc1)C(N)=O` [G34-CA] (Cholyl-ELGPQGPQHFIADLSKKQRPPMEEEEEAYGWMDF-NH2) as the compound, how does the “absorption across the ileal wall into the circulation” value (gastric acid secretion [2]) read?
**A.** Its value is “absorption of the conjugated gastrin across the ileal wall into the circulation occurred”.

**Q.** For “H-EEEAYGWMDF-NH2 [G10, H-Glu-Glu-Glu-Ala-Tyr-GlyTrp-Met-Asp-Phe-amide]”, which “absorption of unconjugated gastrin” value (gastric acid secretion [1]) is on record?
**A.** The value was “absorption of the unconjugated gastrin occurred”.

**Q.** What about the “stimulation of the peak gastric acid secretion” value (“stimulation” for short) (gastric acid secretion [2]; I.V. 36 μg kg^−1, initial injection, P=0.036) of the same compound?
**A.** The value was 1.28 ± 0.93 µmol.

**Q.** And the “stimulation” value (gastric acid secretion [2]; I.V. 36 μg kg^−1, second injection at the end of the experiment, P=0.048)?
**A.** The value was 1.45 ± 1.15 µmol.

**Q.** And the “change in gastric acid secretion” value (gastric acid secretion [2]; infusion into the ileum, 6600 μg kg^−1 in 1.0 ml, not significant (P=0.23))?
**A.** The value was −1.22±1.93 μmol 180 min^−1.

**Q.** And the “effect on gastric acid secretion” value (gastric acid secretion [2])?
**A.** The value was “without effect on gastric acid secretion”.

**Q.** For “pGlu-Leu-Gly-Pro-Gln-Gly-Pro-Gln-His-Phe-Ile-Ala-Asp-Leu-Ser-Lys-Lys-Gln-Arg-Pro-Pro-Met-Glu-Glu-Glu-Glu-Glu-Ala-Tyr-GlyTrp-Met-Asp-Phe-NH2 ([pGlu]LGPQGPQHFIADLSKKQRPPMEEEEEAYGWMDF-NH2; ends and bridges not checked) [G34]”, which “absorption of unconjugated gastrin” value (gastric acid secretion [1]) is on record?
**A.** Its value is “absorption of the unconjugated gastrin occurred”.

**Q.** What about the “stimulation” value (gastric acid secretion [2]; I.V. 10 ng kg^−1, second injection at the end of the experiment, P=0.0005) of the same compound?
**A.** The value was 0.23 ± 0.051 µmol.

**Q.** What about the “stimulation” value (gastric acid secretion [2]; I.V. near threshold dose 10 ng kg^−1, initial injection, P=0.0008) of the same compound?
**A.** Its value is 0.14 ± 0.034 µmol.

**Q.** What about the “change in mean gastric acid secretion” value (gastric acid secretion [2]; infusion into the ileum, 10.5 mg kg^−1 in 1.0 ml, not significant (P=0.16)) of the same compound?
**A.** The value was 0.202±0.262 μmol 180 min^−1.

**Q.** And the “mean increase in gastric acid secretion” value (gastric acid secretion [2]; intraileal infusion of G34 subsequent to intraileal infusion of G34-CA, 4 rats, P=0.004)?
**A.** The value was 5.68±1.38 μmol 180 min^−1.

**Q.** And the “effect on gastric acid secretion” value (gastric acid secretion [2])?
**A.** Its value is “without effect on gastric acid secretion”.
